Measured values as given in US20120059056A1, “CARBONATE DERIVATIVES AS SKIN CARE” (EASTMAN CHEMICAL COMPANY, priority 2010, published 2012).
Blank lines part the entries; values can stand above or below the compound they belong to.

What was measured:
[1] = biological target: Novozym 435 (immobilized Candida Antarctica lipase B) (Moesziomyces antarcticus, UniProt P41365); test: Enzymatic hydrolysis with Novozym 435 in toluene / pH 7 buffer, HPLC analysis; details: for enzymatic hydrolysis: lipase, biphasic mixture of toluene and aqueous pH 7 buffer, time not stated
Sequence of Novozym 435 (immobilized Candida Antarctica lipase B) (P41365 26-342): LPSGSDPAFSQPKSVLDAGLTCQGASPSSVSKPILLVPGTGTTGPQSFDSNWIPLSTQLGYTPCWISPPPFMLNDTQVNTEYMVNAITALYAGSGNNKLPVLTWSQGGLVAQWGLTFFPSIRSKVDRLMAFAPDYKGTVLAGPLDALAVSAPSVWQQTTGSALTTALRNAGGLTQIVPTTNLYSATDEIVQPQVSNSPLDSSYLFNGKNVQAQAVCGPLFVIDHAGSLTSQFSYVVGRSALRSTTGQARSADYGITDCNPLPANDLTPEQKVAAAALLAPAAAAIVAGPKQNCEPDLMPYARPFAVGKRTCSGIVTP
Experimental: Resveratrol tris(methyl carbonate) (100 mg; 0.249 mmol) was dissolved in 2 mL of toluene. 2 mL of pH 7 buffer was added followed by 100 mg of Novozym 435 (immobilized Candida Antarctica lipase B).
2 mL of pH 7 buffer was added followed by 100 mg of Novozym 435 (immobilized Candida Antarctica lipase B).
Resveratrol tripalmitate (100 mg; 0.11 mmol) was dissolved in 2 mL of toluene. 2 mL of pH 7 buffer was added followed by 100 mg of Novozym 435 (immobilized Candida Antarctica lipase B).
1 mL of pH 7 buffer was added followed by 100 mg of Novozym 435 (immobilized Candida Antarctica lipase B).
Hydroxytyrosol tris(methyl carbonate) (3, R=Me, 100 mg; 0.305 mmol) was dissolved in 2 mL of toluene. 2 mL of pH 7 buffer was added followed by 100 mg of Novozym 435 (immobilized Candida Antarctica lipase B).
Hydroxytyrosol trihexanoate containing 1.9% hydroxytyrosol by HPLC analysis (100 mg; 0.22 mmol) was dissolved in 2 mL of toluene. 2 mL of pH 7 buffer was added followed by 100 mg of Novozym 435 (immobilized Candida Antarctica lipase B).

[2] = Similar reaction run in the absence of enzyme (toluene / pH 7 buffer); type: physicochemical; details: for hydrolysis in the absence of enzyme: after 3 days; for hydrolysis in the absence of the enzyme: toluene / aqueous pH 7 buffer, time not stated
Experimental: Resveratrol tris(methyl carbonate) (100 mg; 0.249 mmol) was dissolved in 2 mL of toluene. […]
Hydroxytyrosol tris(methyl carbonate) (3, R=Me, 100 mg; 0.305 mmol) was dissolved in 2 mL of toluene. […]

[3] = Solubility in solvents; type: physicochemical
[4] = 24 h, ambient temperature, equal volumes of both layers
[5] = 48 h, ambient temperature (trihexanoate contained 1.9% hydroxytyrosol at start)
[6] = 22 h, ambient temperature, toluene/pH 7 buffer, equal volumes of both layers
[7] = 3 days, ambient temperature, toluene/pH 7 buffer
[8] = 1 day, ambient temperature, top layer only

Compound: COC(=O)OCCc1ccc(OC(=O)OC)c(OC(=O)OC)c1 [Hydroxytyrosol tris(methyl carbonate)]
hydroxytyrosol by HPLC analysis [1, 4]: 74% | mono- and di-carbonates by HPLC analysis [1, 4]: 1.5% | unchanged hydroxytyrosol tris(methyl carbonate) by HPLC analysis [1, 4]: 17% | mono- and di-carbonates by HPLC analysis ([1]; 48 h, ambient temperature): 5% | unchanged starting tris(methyl carbonate) or trihexanoate by HPLC analysis ([1]; 48 h, ambient temperature): 3% | hydroxytyrosol by HPLC analysis [1, 5]: 92% | hydrolysis to hydroxytyrosol in the absence of enzyme ([2]; after 2 days, toluene/pH 7 buffer): no detectable hydrolysis to hydroxytyrosol

Compound: CCCCCC(=O)OCCc1ccc(OC(=O)CCCCC)c(OC(=O)CCCCC)c1 [Hydroxytyrosol trihexanoate, Hydroxytyrosol Trihexanoate, reference compound]
3,4-di(hexanoyl)phenylethanol by HPLC analysis ([1]; 48 h, ambient temperature): 18.7% | unchanged starting tris(methyl carbonate) or trihexanoate by HPLC analysis ([1]; 48 h, ambient temperature): 72.3% | hydroxytyrosol by HPLC analysis [1, 5]: 2.5%

resveratrol bis(methyl carbonate) by HPLC analysis [1, 6]: 15.8% | resveratrol by HPLC analysis [1, 6]: 23.75% | resveratrol mono(methyl carbonate) by HPLC analysis [1, 6]: 52.9% | resveratrol tris(methyl carbonate) remaining by HPLC analysis [1, 6]: 7.0% | resveratrol bis/di(alkyl carbonate) or dipalmitate by HPLC analysis [1, 7]: 0.6% | resveratrol by HPLC analysis [1, 7]: 63.8% | resveratrol mono(alkyl carbonate) by HPLC analysis [1, 7]: 35.1% | unchanged starting tris(alkyl carbonate) or tripalmitate by HPLC analysis [1, 7]: no detectable | hydrolysis in the absence of enzyme ([2]; toluene/pH 7 buffer): no detectable hydrolysis | hydrolysis in the absence of the enzyme [2]: no observed hydrolysis
Compound: COC(=O)Oc1ccc(/C=C/c2cc(OC(=O)OC)cc(OC(=O)OC)c2)cc1 [Resveratrol tris(methyl carbonate)]
enzymatic hydrolysis [1]: undergo hydrolysis of the carbonate to afford dicarbonates, monocarbonates, and the parent triphenol

hydrolysis in the absence of enzyme ([2]; toluene/pH 7 buffer): no detectable hydrolysis
Compound: 4-Hydroxybenzyl Alcohol bis(butyl carbonate)

solubility in toluene and water [3]: insolubility in both toluene and water
Compound: OCc1ccc(O)cc1 [4-hydroxybenzyl alcohol, 4-Hydroxybenzyl alcohol]

Compound: CCCCCCCCCCCCCCCC(=O)Oc1ccc(C=Cc2cc(OC(=O)CCCCCCCCCCCCCCC)cc(OC(=O)CCCCCCCCCCCCCCC)c2)cc1 [Resveratrol tripalmitate, Resveratrol Tripalmitate, reference compound]
extent of enzymatic hydrolysis [1, 7]: minimal hydrolysis | unchanged starting tris(alkyl carbonate) or tripalmitate by HPLC analysis [1, 7]: 89% | enzymatic hydrolysis [1]: minimal hydrolysis

resveratrol bis(butyl carbonate) by HPLC analysis [1, 8]: 41% | resveratrol tris(butyl carbonate) remaining by HPLC analysis [1, 8]: 59% | resveratrol bis/di(alkyl carbonate) or dipalmitate by HPLC analysis [1, 7]: 41% | resveratrol by HPLC analysis [1, 7]: 35% | resveratrol mono(alkyl carbonate) by HPLC analysis [1, 7]: 5% | unchanged starting tris(alkyl carbonate) or tripalmitate by HPLC analysis [1, 7]: 19% | hydrolysis in the absence of the enzyme [2]: no observed hydrolysis
Compound: CCCCOC(=O)Oc1ccc(/C=C/c2cc(OC(=O)OCCCC)cc(OC(=O)OCCCC)c2)cc1 [Resveratrol tris(butyl carbonate)]
enzymatic hydrolysis [1]: undergo hydrolysis of the carbonate to afford dicarbonates, monocarbonates, and the parent triphenol
